Test [1] deals with NSCLC-derived Calu-6 (KRAS Q61K). The test can be described thus: In vivo KRAS-mutant tumor model Calu-6. The following applies: Calu-6 (KRAS Q61K) model, well-tolerated doses.
In test [2] the test system is cell lines that contain a variety of mutations that activate MAPK signaling. Description: Cell-based anti-proliferative assays. The following applies: cell lines with mutations that activate MAPK signaling.
Test [3] has as its target BRAF (Homo sapiens, UniProt P15056). Description: BRAF inhibition. It counts as biochemical.
Test [4] concerns the target CRAF (Homo sapiens, UniProt P04049). Description: CRAF inhibition. It counts as biochemical.
Test [5] has as its system NCI-H358 (KRAS G12C). The test can be described thus: In vivo KRAS-mutant tumor model NCI-H358. Particulars: well-tolerated doses.

BRAF, sequence (P15056 whole entry): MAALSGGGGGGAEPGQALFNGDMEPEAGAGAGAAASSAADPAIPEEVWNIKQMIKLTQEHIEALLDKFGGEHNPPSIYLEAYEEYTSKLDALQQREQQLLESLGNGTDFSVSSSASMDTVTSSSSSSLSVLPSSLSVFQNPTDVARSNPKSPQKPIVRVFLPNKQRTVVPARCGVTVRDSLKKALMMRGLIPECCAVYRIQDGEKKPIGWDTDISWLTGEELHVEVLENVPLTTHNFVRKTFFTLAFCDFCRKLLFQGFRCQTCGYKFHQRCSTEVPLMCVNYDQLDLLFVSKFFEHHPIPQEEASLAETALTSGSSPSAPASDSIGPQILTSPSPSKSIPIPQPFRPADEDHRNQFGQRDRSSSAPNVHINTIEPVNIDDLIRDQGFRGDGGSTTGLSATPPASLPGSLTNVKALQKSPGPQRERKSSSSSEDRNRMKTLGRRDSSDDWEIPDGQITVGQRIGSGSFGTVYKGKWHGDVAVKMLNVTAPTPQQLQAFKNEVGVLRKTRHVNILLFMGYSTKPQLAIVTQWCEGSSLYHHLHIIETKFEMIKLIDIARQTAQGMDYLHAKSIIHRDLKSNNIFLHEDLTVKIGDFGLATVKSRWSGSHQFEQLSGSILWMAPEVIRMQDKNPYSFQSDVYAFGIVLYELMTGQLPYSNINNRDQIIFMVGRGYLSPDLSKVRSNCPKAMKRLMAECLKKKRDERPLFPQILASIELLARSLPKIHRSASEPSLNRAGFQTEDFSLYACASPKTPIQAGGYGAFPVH
CRAF, sequence (P04049 whole entry): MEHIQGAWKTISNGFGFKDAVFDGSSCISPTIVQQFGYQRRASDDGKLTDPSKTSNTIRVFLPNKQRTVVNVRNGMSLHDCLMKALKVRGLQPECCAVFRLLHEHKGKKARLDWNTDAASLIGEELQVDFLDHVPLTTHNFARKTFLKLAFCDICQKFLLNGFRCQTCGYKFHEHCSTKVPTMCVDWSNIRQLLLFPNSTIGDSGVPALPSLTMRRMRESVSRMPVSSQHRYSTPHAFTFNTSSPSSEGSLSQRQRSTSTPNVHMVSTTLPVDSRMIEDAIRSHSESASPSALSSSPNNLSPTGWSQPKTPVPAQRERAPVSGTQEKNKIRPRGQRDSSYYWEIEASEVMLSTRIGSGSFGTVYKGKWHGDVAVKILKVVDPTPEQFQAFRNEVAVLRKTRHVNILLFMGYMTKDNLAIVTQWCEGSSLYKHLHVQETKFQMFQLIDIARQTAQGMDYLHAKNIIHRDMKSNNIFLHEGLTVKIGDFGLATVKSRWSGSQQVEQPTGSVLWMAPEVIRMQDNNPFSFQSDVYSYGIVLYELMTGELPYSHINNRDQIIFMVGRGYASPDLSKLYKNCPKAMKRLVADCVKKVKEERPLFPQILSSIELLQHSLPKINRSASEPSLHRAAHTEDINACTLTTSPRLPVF

Consider `Cc1ccc(NC(=O)c2ccnc(C(F)(F)F)c2)cc1-c1cc(OCCO)nc(N2CCOCC2)c1` [Compound of formula (I)], for which the “tumor response in vivo” value in test [1] and in test [5] was “tumor regression” throughout. Further, in test [2], the “anti-proliferative activity in cell lines” value is listed as “anti-proliferative activity”. Besides, the “inhibition of BRAF” value in test [3] was “potent inhibitors”. In test [4], the “inhibition of CRAF” value is given as “potent inhibitors”.
